# Assay results as given in patent US9006250B2, “4-amino-6-(heterocyclic)picolinates and 6-amino-2-(heterocyclic)pyrimidine-4-carboxylates and their use as herbicides” (Dow AgroSciences, LLC, priority 2013, dated 2015).
# How the values were obtained:
# [1] = test system: ABUTH: velvetleaf (Abutilon theophrasti); assay: Post-Emergent Test II herbicidal activity; assay type: in vivo; settings: post-emergence, 336 h, 14 days, read-out: Visual Growth Reduction (%) 14 Days After Application ABUTH; for pest or weed control at 35 g/ha: 35 g ai/ha; for pest or weed control at 70 g/ha: 70 g ai/ha; for pest or weed control at 140 g/ha: 140 g ai/ha
# Method in brief: (§1)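 Foliar application at 187 L/ha to greenhouse-grown seedlings (first/second true leaf), highest rate plus four serial halvings. Scoring: visual, 14 d after treatment, 0% no injury to 100% complete kill.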
# [2] = test system: AMARE: redroot pigweed (Amaranthus retroflexus); assay: Post-Emergent Test II herbicidal activity; assay type: in vivo; settings: post-emergence, 336 h, 14 days, read-out: Visual Growth Reduction (%) 14 Days After Application AMARE; for pest or weed control at 35 g/ha: 35 g ai/ha; for pest or weed control at 70 g/ha: 70 g ai/ha; for pest or weed control at 140 g/ha: 140 g ai/ha
# Method in brief: as §1
# [3] = test system: BRSNN: oilseed rape, canola (Brassica napus); assay: Post-Emergent Test II herbicidal activity; assay type: in vivo; settings: post-emergence, 336 h, 14 days, read-out: Visual Growth Reduction (%) 14 Days After Application BRSNN; for pest or weed control at 35 g/ha: 35 g ai/ha; for pest or weed control at 70 g/ha: 70 g ai/ha; for pest or weed control at 140 g/ha: 140 g ai/ha
# Method in brief: as §1
# [4] = test system: CHEAL: lambsquarters (Chenopodium album); assay: Post-Emergent Test II herbicidal activity; assay type: in vivo; settings: post-emergence, 336 h, 14 days, read-out: Visual Growth Reduction (%) 14 Days After Application CHEAL; for pest or weed control at 35 g/ha: 35 g ai/ha; for pest or weed control at 70 g/ha: 70 g ai/ha; for pest or weed control at 140 g/ha: 140 g ai/ha
# Method in brief: as §1
# [5] = test system: CYPES: yellow nutsedge (Cyperus esculentus); assay: Post-Emergent Test II herbicidal activity; assay type: in vivo; settings: post-emergence, 336 h, 14 days, read-out: Visual Growth Reduction (%) 14 Days After Application CYPES; for pest or weed control at 35 g/ha: 35 g ai/ha; for pest or weed control at 70 g/ha: 70 g ai/ha; for pest or weed control at 140 g/ha: 140 g ai/ha
# Method in brief: as §1
# [6] = test system: ECHCG: barnyardgrass (Echinochloa crus-galli); assay: Post-Emergent Test II herbicidal activity; assay type: in vivo; settings: post-emergence, 336 h, 14 days, read-out: Visual Growth Reduction (%) 14 Days After Application ECHCG; for pest or weed control at 35 g/ha: 35 g ai/ha; for pest or weed control at 70 g/ha: 70 g ai/ha; for pest or weed control at 140 g/ha: 140 g ai/ha
# Method in brief: as §1
# [7] = test system: EPHHL: wild poinsettia (Euphorbia heterophylla); assay: Post-Emergent Test II herbicidal activity; assay type: in vivo; settings: post-emergence, 336 h, 14 days, read-out: Visual Growth Reduction (%) 14 Days After Application EPHHL; for pest or weed control at 35 g/ha: 35 g ai/ha; for pest or weed control at 70 g/ha: 70 g ai/ha; for pest or weed control at 140 g/ha: 140 g ai/ha
# Method in brief: as §1
# [8] = test system: HELAN: sunflower (Helianthus annuus); assay: Post-Emergent Test II herbicidal activity; assay type: in vivo; settings: post-emergence, 336 h, 14 days, read-out: Visual Growth Reduction (%) 14 Days After Application HELAN; for pest or weed control at 35 g/ha: 35 g ai/ha; for pest or weed control at 70 g/ha: 70 g ai/ha; for pest or weed control at 140 g/ha: 140 g ai/ha
# Method in brief: as §1
# [9] = test system: ORYSA: rice (Oryza sativa); assay: Post-Emergent Test II herbicidal activity; assay type: in vivo; settings: post-emergence, 336 h, 14 days, read-out: Visual Growth Reduction (%) 14 Days After Application ORYSA; for pest or weed control at 35 g/ha: 35 g ai/ha; for pest or weed control at 70 g/ha: 70 g ai/ha; for pest or weed control at 140 g/ha: 140 g ai/ha
# Method in brief: as §1
# [10] = test system: SETFA: giant foxtail (Setaria faberi); assay: Post-Emergent Test II herbicidal activity; assay type: in vivo; settings: post-emergence, 336 h, 14 days, read-out: Visual Growth Reduction (%) 14 Days After Application SETFA; for pest or weed control at 35 g/ha: 35 g ai/ha; for pest or weed control at 70 g/ha: 70 g ai/ha; for pest or weed control at 140 g/ha: 140 g ai/ha
# Method in brief: as §1
# [11] = test system: TRZAS: wheat, spring (Triticum aestivum); assay: Post-Emergent Test II herbicidal activity; assay type: in vivo; settings: post-emergence, 336 h, 14 days, read-out: Visual Growth Reduction (%) 14 Days After Application TRZAS; for pest or weed control at 35 g/ha: 35 g ai/ha; for pest or weed control at 70 g/ha: 70 g ai/ha; for pest or weed control at 140 g/ha: 140 g ai/ha
# Method in brief: as §1
# [12] = test system: ZEAMX: maize, corn (Zea mays); assay: Post-Emergent Test II herbicidal activity; assay type: in vivo; settings: post-emergence, 336 h, 14 days, read-out: Visual Growth Reduction (%) 14 Days After Application ZEAMX; for pest or weed control at 35 g/ha: 35 g ai/ha; for pest or weed control at 70 g/ha: 70 g ai/ha; for pest or weed control at 140 g/ha: 140 g ai/ha
# Method in brief: as §1
Structure (SMILES),pest or weed control at 35 g/ha [1] [%],pest or weed control at 70 g/ha [1] [%],pest or weed control at 140 g/ha [1] [%],pest or weed control at 35 g/ha [2] [%],pest or weed control at 70 g/ha [2] [%],pest or weed control at 140 g/ha [2] [%],pest or weed control at 35 g/ha [3] [%],pest or weed control at 70 g/ha [3] [%],pest or weed control at 140 g/ha [3] [%],pest or weed control at 35 g/ha [4] [%],pest or weed control at 70 g/ha [4] [%],pest or weed control at 140 g/ha [4] [%],pest or weed control at 35 g/ha [5] [%],pest or weed control at 70 g/ha [5] [%],pest or weed control at 140 g/ha [5] [%],pest or weed control at 35 g/ha [6] [%],pest or weed control at 70 g/ha [6] [%],pest or weed control at 140 g/ha [6] [%],pest or weed control at 35 g/ha [7] [%],pest or weed control at 70 g/ha [7] [%],other results
"COC(=O)c1nc(-c2cc3nonc3cc2F)c(F)c(N)c1Cl [Compound 3, Methyl 4-amino-3-chloro-5-fluoro-6-(6-fluorobenzo[c][1,2,5]oxadiazol-5-yl)picolinate]",45 to 59,0 to 29,0 to 29,95 to 100,95 to 100,95 to 100,85 to 94,85 to 94,95 to 100,85 to 94,85 to 94,85 to 94,60 to 74,95 to 100,95 to 100,95 to 100,95 to 100,75 to 84,45 to 59,45 to 59,pest or weed control at 140 g/ha [7]: 60 to 74%; pest or weed control at 35 g/ha [8]: 85 to 94%; pest or weed control at 70 g/ha [8]: 85 to 94%; pest or weed control at 140 g/ha [8]: 95 to 100%; pest or weed control at 35 g/ha [9]: 0 to 29%; pest or weed control at 70 g/ha [9]: 0 to 29%; pest or weed control at 140 g/ha [9]: 0 to 29%; pest or weed control at 35 g/ha [10]: 45 to 59%; pest or weed control at 70 g/ha [10]: 45 to 59%; pest or weed control at 140 g/ha [10]: 45 to 59%; pest or weed control at 35 g/ha [11]: 45 to 59%; pest or weed control at 70 g/ha [11]: 45 to 59%; pest or weed control at 140 g/ha [11]: 60 to 74%; pest or weed control at 35 g/ha [12]: 60 to 74%; pest or weed control at 70 g/ha [12]: 60 to 74%; pest or weed control at 140 g/ha [12]: 75 to 84%; melting point: 180 to 182 °C
"COC(=O)c1nc(-c2cc3nonc3cc2F)cc(N)c1Cl [Compound 4, Methyl 4-amino-3-chloro-6-(6-fluorobenzo[c][1,2,5]oxadiazol-5-yl)picolinate]",85 to 94,95 to 100,95 to 100,95 to 100,95 to 100,95 to 100,85 to 94,95 to 100,95 to 100,85 to 94,95 to 100,95 to 100,95 to 100,95 to 100,95 to 100,85 to 94,95 to 100,85 to 94,95 to 100,95 to 100,pest or weed control at 140 g/ha [7]: 95 to 100%; pest or weed control at 35 g/ha [8]: 85 to 94%; pest or weed control at 70 g/ha [8]: 85 to 94%; pest or weed control at 140 g/ha [8]: 85 to 94%; pest or weed control at 35 g/ha [9]: 0 to 29%; pest or weed control at 70 g/ha [9]: 0 to 29%; pest or weed control at 140 g/ha [9]: 30 to 44%; pest or weed control at 35 g/ha [10]: 60 to 74%; pest or weed control at 70 g/ha [10]: 60 to 74%; pest or weed control at 140 g/ha [10]: 60 to 74%; pest or weed control at 35 g/ha [11]: 60 to 74%; pest or weed control at 70 g/ha [11]: 75 to 84%; pest or weed control at 140 g/ha [11]: 75 to 84%; pest or weed control at 35 g/ha [12]: 85 to 94%; pest or weed control at 70 g/ha [12]: 85 to 94%; pest or weed control at 140 g/ha [12]: 85 to 94%; melting point: 199 to 201 °C
COC(=O)c1nc(-c2cc3nonc3cc2Cl)cc(N)c1Cl [Compound 8],0 to 29,0 to 29,0 to 29,0 to 29,0 to 29,0 to 29,0 to 29,0 to 29,30 to 44,0 to 29,0 to 29,0 to 29,0 to 29,0 to 29,0 to 29,0 to 29,0 to 29,0 to 29,0 to 29,0 to 29,pest or weed control at 140 g/ha [7]: 0 to 29%; pest or weed control at 35 g/ha [8]: 0 to 29%; pest or weed control at 70 g/ha [8]: 0 to 29%; pest or weed control at 140 g/ha [8]: 0 to 29%; pest or weed control at 35 g/ha [9]: 0 to 29%; pest or weed control at 70 g/ha [9]: 0 to 29%; pest or weed control at 140 g/ha [9]: 0 to 29%; pest or weed control at 35 g/ha [10]: 0 to 29%; pest or weed control at 70 g/ha [10]: 0 to 29%; pest or weed control at 140 g/ha [10]: 0 to 29%; pest or weed control at 35 g/ha [11]: 0 to 29%; pest or weed control at 70 g/ha [11]: 0 to 29%; pest or weed control at 140 g/ha [11]: 0 to 29%; pest or weed control at 35 g/ha [12]: 0 to 29%; pest or weed control at 70 g/ha [12]: 0 to 29%; pest or weed control at 140 g/ha [12]: 0 to 29%; melting point: 224 to 226 °C
